Assay: Presence of 3-methyl indole in stored monatin samples (GC, mass spectrometry, olfactometry)
Type: physicochemical
Details: not detected in the initial samples (Day 0) nor in samples stored in the dark
From the text: A compound described as having a musty flavor and odor during some of the organoleptic evaluations is described herein. […] The compound (3-methylindole; 3-MI; skatole) was identified using gas chromatography (GC), mass spectrometry, and olfactometry based on its retention time, mass spectra, and odor profile using the following method.
The volatile components from a sample were purged onto an absorbent and then thermally desorb them into the cold GC inlet for subsequent separation and identification by mass spectrometry. Simultaneously, the GC column effluent was split between the mass spec and olfactory port to determine the specific odor characteristics for compounds that contribute to the overall odor of the sample.
Each sample was extracted and analyzed in duplicate. […]
Each reconstructed total ion current chromatogram (RTICC) was manually reprocessed to 1) identify the compounds by using olfactory and mass spectral library matching. Compounds that were not detected by olfactory but which gave significant response were also identified, and 2) integrate the peaks to obtain areas for relative comparison to the other samples analyzed. […] Corrected areas for each compound were then converted to graphical form to more easily compare samples analyzed during the test.

## Cc1c[nH]c2ccccc12 [3-methylindole]
  detection of 3-methylindole in stored monatin samples: only found in samples exposed to light

— patent publication US20120076899A1, “SHELF STABLE MONATIN SWEETENED BEVERAGE” (Cargill, Incorporated, priority 2009, published 2012)
